Drawing on article PMC5086383, “Isolation and Physicochemical Characterization of Laccase from Ganoderma lucidum-CDBT1 Isolated from Its Native Habitat in Nepal” (BioMed Research International, 2016), this text covers Km for one molecule.

One may read the Km as the substrate concentration at which the rate is half of its maximum.

The subject of the assay is T1, laccase isozyme 3 (purified laccase from Ganoderma lucidum-CDBT1).
T1 construct: native secreted enzyme purified from culture medium (ammonium sulfate, DEAE Sepharose); 43 kDa by SDS-PAGE
Briefly: ABTS oxidation at […] nm, Lineweaver-Burk. Type of assay: biochemical. The following applies: 0.1 M sodium acetate pH 5.0, room temperature (~25°C); ABTS 0.01 to 10 mM; co-substrate O2.

With `CCn1c(=NN=c2sc3cc(S(=O)(=O)O)ccc3n2CC)sc2cc(S(=O)(=O)O)ccc21` [ABTS, 2,2′-azino-bis(3-ethylbenzothiazoline-6-sulfonic acid)], the Km amounted to 110 µM.
